Data as given in patent US12459974B2, “Bicyclic peptide ligands specific for Nectin-4” (priority 2018, dated 2025).
Read-outs that look alike come from different tables or passages of the source. *1 amine or outer side, *2 acyl side, *3 side chain or, on linkers, in order; H or OH if unused. Where a SMILES comes first, the peptide text is derived from it. Bridges are numbered along the chain shown (N, C = ends). TATA = O=C(CC[*:1])N1CN(C(=O)CC[*:2])CN(C(=O)CC[*:3])C1

Target: T1, human Nectin-4 (Homo sapiens, UniProt Q96NY8)
T1 sequence (Q96NY8 32-510): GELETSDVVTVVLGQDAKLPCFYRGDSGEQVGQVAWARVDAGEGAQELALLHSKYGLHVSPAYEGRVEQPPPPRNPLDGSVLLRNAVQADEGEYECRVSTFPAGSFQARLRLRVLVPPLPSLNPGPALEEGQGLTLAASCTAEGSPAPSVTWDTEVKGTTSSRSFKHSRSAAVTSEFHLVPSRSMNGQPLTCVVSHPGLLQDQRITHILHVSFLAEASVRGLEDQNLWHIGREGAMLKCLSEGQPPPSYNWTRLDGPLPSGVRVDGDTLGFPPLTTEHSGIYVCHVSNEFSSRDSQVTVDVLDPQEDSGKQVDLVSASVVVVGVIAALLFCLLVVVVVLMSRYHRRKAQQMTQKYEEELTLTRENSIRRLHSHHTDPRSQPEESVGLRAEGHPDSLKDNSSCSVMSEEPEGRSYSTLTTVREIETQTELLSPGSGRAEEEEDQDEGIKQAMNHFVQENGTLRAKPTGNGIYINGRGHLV
Assay: Nectin-4 competition binding assay (fluorescence polarisation)
Experimental: Peptides were diluted to an appropriate concentration in assay buffer as described in the direct binding assay with a maximum of 5% DMSO, then serially diluted 1 in 2. Five μL of diluted peptide was added to the plate followed by 10 μL of human Nectin-4, then 10 μL fluorescent peptide added. Measurements were conducted as for the direct binding assay, however the gain was determined prior to the first measurement. Data analysis was in Systat Sigmaplot version 12.0 where the mP values were fit to a user defined cubic equation to generate a Ki value: • f=ymin+(ymax−ymin)/Lig*((Lig*((2*((Klig+Kcomp+Lig+Comp-Prot*c)^2-3*(Kcomp*(Lig-Prot*c)+Klig*(Comp-Prot*c)+Klig*Kcomp))^0.5*COS(ARCCOS((−2*(Klig+Kcomp+Lig+Comp-Prot*c)^3+9*(Klig+Kcomp+Lig+Comp-Prot*c)*(Kcomp*(Lig-Prot*c)+Klig*(Comp-Prot*c)+Klig*Kcomp)−27*(−1*Klig*Kcomp*Prot*c)/(2*((((Klig+Kcomp+Lig+Comp-Prot*c)^2−3*(Kcomp*(Lig-Prot*c)+Klig*(Comp-Prot*c)+Klig*Kcomp))^3)^0.5)))/3))−(Klig+Kcomp+Lig+Comp-Prot*c)))/((3*Klig)+((2*((Klig+Kcomp+Lig+Comp-Prot*c)^2−3*(Kcomp*(Lig-Prot*c)+Klig*(Comp-Prot*c)+Klig*Kcomp))^0.5*COS (ARCCOS ((−2*(Klig+Kcomp+Lig+Comp-Prot*c)^3+9*(Klig+Kcomp+Lig+Comp-Prot*c)*(Kcomp*(Lig-Prot*c)+Klig*(Comp-Prot*c)+Klig*Kcomp)-27*(−1*Klig*Kcomp*Prot*c))/(2*((((Klig+Kcomp+Lig+Comp-Prot*c)^2-3*(Kcomp*(Lig-Prot*c)+Klig*(Comp-Prot+c)+Klig*Kcomp))^3)^0.5))/3)−(Klig+Kcomp+Lig+Comp-Prot*c)))).
“Lig”, “KLig” and “Prot” were all defined values relating to: fluorescent peptide concentration, the Kd of the fluorescent peptide and Nectin concentration respectively.

[1] = competition with fluorescent peptide SEQ ID NO: 217, read-out: Ki

SMILES | Ki | Ki [1]
CC[C@H](C)[C@@H]1NC(=O)[C@@H]2CCCN2C(=O)[C@H](Cc2c[nH]c3ccccc23)NC(=O)[C@H](CO)NC(=O)[C@H](Cc2c[nH]c3ccccc23)NC(=O)CNC(=O)[C@H](CCCNC(=N)N)NC(=O)[C@H](CCSC)NC(=O)[C@@H]2CSCCC(=O)N3CN(CN(C3)C(=O)CCSC[C@H](NC(=O)[C@H](C)NC(=O)[C@@H](NC(=O)[C@@H](N)CC(=O)O)[C@@H](C)O)C(=O)N3CCC[C@H]3C(=O)N[C@@H](Cc3ccccc3)C(=O)NCC(=O)N2)C(=O)CCSC[C@@H](C(=O)N[C@@H](C)C(N)=O)NC(=O)[C@H](Cc2c[nH]c3ccccc23)NC1=O [BCY3388, DTA-(SEQ ID NO: 46)-A] (H-DTACPFGCMRGWSWPIWCA-NH2; linker 4-8-18 via TATA) | 129 nM | –
CC[C@H](C)[C@@H]1NC(=O)[C@@H]2CCCN2C(=O)[C@H](Cc2c[nH]c3ccccc23)NC(=O)[C@H](CO)NC(=O)[C@H](Cc2c[nH]c3ccccc23)NC(=O)CNC(=O)[C@H](CO)NC(=O)[C@H](CCSC)NC(=O)[C@@H]2CSCCC(=O)N3CN(CN(C3)C(=O)CCSC[C@H](NC(=O)[C@H](CCC(=O)O)NC(=O)[C@H](CO)NC(=O)[C@@H](N)CC(=O)O)C(=O)N3CCC[C@H]3C(=O)N[C@@H](Cc3ccccc3)C(=O)NCC(=O)N2)C(=O)CCSC[C@@H](C(=O)N[C@@H](C)C(N)=O)NC(=O)[C@H](Cc2c[nH]c3ccccc23)NC1=O [BCY3389, DSE-(SEQ ID NO: 47)-A] (H-DSECPFGCMSGWSWPIWCA-NH2; linker 4-8-18 via TATA; N-terminus and C-terminus assumed) | – | 99.8 nM
CC[C@H](C)[C@@H]1NC(=O)[C@@H]2CCCN2C(=O)[C@H](Cc2c[nH]c3ccccc23)NC(=O)[C@H](CO)NC(=O)[C@H](Cc2c[nH]c3ccccc23)NC(=O)CNC(=O)[C@H](CCC(=O)O)NC(=O)[C@H](CCSC)NC(=O)[C@@H]2CSCCC(=O)N3CN(CN(C3)C(=O)CCSC[C@H](NC(=O)[C@H](C)NC(=O)[C@H](CC(=O)O)NC(=O)[C@@H](N)Cc3c[nH]cn3)C(=O)N3CCC[C@H]3C(=O)N[C@@H](Cc3ccccc3)C(=O)NCC(=O)N2)C(=O)CCSC[C@@H](C(=O)N[C@@H](C)C(N)=O)NC(=O)[C@H](Cc2c[nH]c3ccccc23)NC1=O [BCY3390, HDA-(SEQ ID NO: 48)-A] (H-HDACPFGCMEGWSWPIWCA-NH2; linker 4-8-18 via TATA; N-terminus and C-terminus assumed) | – | 302 nM
CC[C@H](C)[C@@H]1NC(=O)[C@@H]2CCCN2C(=O)[C@H](Cc2c[nH]c3ccccc23)NC(=O)[C@H](CO)NC(=O)[C@H](Cc2c[nH]c3ccccc23)NC(=O)[C@H](CC(=O)O)NC(=O)[C@H](CCC(=O)O)NC(=O)[C@H](CCSC)NC(=O)[C@@H]2CSCCC(=O)N3CN(CN(C3)C(=O)CCSC[C@H](NC(=O)[C@@H](NC(=O)[C@H](CC(=O)O)NC(=O)[C@@H](N)CCSC)[C@@H](C)O)C(=O)N3CCC[C@H]3C(=O)N[C@@H](Cc3ccccc3)C(=O)NCC(=O)N2)C(=O)CCSC[C@@H](C(=O)N[C@@H](C)C(N)=O)NC(=O)[C@H](Cc2c[nH]c3ccccc23)NC1=O [BCY3391, MDT-(SEQ ID NO: 49)-A] (H-MDTCPFGCMEDWSWPIWCA-NH2; linker 4-8-18 via TATA; N-terminus and C-terminus assumed) | – | 198 nM
CC[C@H](C)[C@@H]1NC(=O)[C@@H]2CCCN2C(=O)[C@H](Cc2c[nH]c3ccccc23)NC(=O)[C@H](CO)NC(=O)[C@H](Cc2c[nH]c3ccccc23)NC(=O)CNC(=O)[C@@H]2CCCN2C(=O)[C@H](CCSC)NC(=O)[C@@H]2CSCCC(=O)N3CN(CN(C3)C(=O)CCSC[C@H](NC(=O)CNC(=O)[C@@H]3CCCN3C(=O)[C@@H](N)CC(=O)O)C(=O)N3CCC[C@H]3C(=O)N[C@@H](Cc3ccccc3)C(=O)NCC(=O)N2)C(=O)CCSC[C@@H](C(=O)N[C@@H](C)C(N)=O)NC(=O)[C@H](Cc2c[nH]c3ccccc23)NC1=O [BCY3392, DPG-(SEQ ID NO: 50)-A] (H-DPGCPFGCMPGWSWPIWCA-NH2; linker 4-8-18 via TATA; N-terminus and C-terminus assumed) | – | 36.3 nM
CC[C@H](C)[C@@H]1NC(=O)[C@@H]2CCCN2C(=O)[C@H](Cc2c[nH]c3ccccc23)NC(=O)[C@H](CO)NC(=O)[C@H](Cc2c[nH]c3ccccc23)NC(=O)[C@H](CO)NC(=O)[C@H](CCCCN)NC(=O)[C@H](CCSC)NC(=O)[C@@H]2CSCCC(=O)N3CN(CN(C3)C(=O)CCSC[C@H](NC(=O)[C@H](CO)NC(=O)[C@H](CC(=O)O)NC(=O)[C@@H](N)Cc3c[nH]cn3)C(=O)N3CCC[C@H]3C(=O)N[C@@H](Cc3ccccc3)C(=O)NCC(=O)N2)C(=O)CCSC[C@@H](C(=O)N[C@@H](C)C(N)=O)NC(=O)[C@H](Cc2c[nH]c3ccccc23)NC1=O [BCY3393, HDS-(SEQ ID NO: 51)-A] (H-HDSCPFGCMKSWSWPIWCA-NH2; linker 4-8-18 via TATA) | – | 173 nM
CC[C@H](C)[C@@H]1NC(=O)[C@@H]2CCCN2C(=O)[C@H](Cc2c[nH]c3ccccc23)NC(=O)[C@H](CO)NC(=O)[C@H](Cc2c[nH]c3ccccc23)NC(=O)[C@H]([C@@H](C)O)NC(=O)[C@H](CCCCN)NC(=O)[C@H](CCSC)NC(=O)[C@@H]2CSCCC(=O)N3CN(CN(C3)C(=O)CCSC[C@H](NC(=O)[C@H](C)N)C(=O)N3CCC[C@H]3C(=O)N[C@@H](Cc3ccccc3)C(=O)NCC(=O)N2)C(=O)CCSC[C@@H](C(=O)N[C@H](C(=O)N[C@@H](CC(=O)O)C(=O)N[C@@H](CCCCN)C(N)=O)[C@@H](C)O)NC(=O)[C@H](Cc2c[nH]c3ccccc23)NC1=O [BCY3394, A-(SEQ ID NO: 52)-TDK] (H-ACPFGCMKTWSWPIWCTDK-NH2; linker 2-6-16 via TATA; N-terminus and C-terminus assumed) | – | 102 nM
CC[C@H](C)[C@@H]1NC(=O)[C@@H]2CCCN2C(=O)[C@H](Cc2c[nH]c3ccccc23)NC(=O)[C@H](CO)NC(=O)[C@H](Cc2c[nH]c3ccccc23)NC(=O)CNC(=O)[C@H](CCCCN)NC(=O)[C@H](CCSC)NC(=O)[C@@H]2CSCCC(=O)N3CN(CN(C3)C(=O)CCSC[C@H](NC(=O)[C@H](C)N)C(=O)N3CCC[C@H]3C(=O)N[C@@H](Cc3ccccc3)C(=O)NCC(=O)N2)C(=O)CCSC[C@@H](C(=O)N[C@@H](CC(C)C)C(=O)N[C@@H](CCCCN)C(=O)N[C@@H](CC(=O)O)C(N)=O)NC(=O)[C@H](Cc2c[nH]c3ccccc23)NC1=O [BCY3395, A-(SEQ ID NO: 53)-LKD] (H-ACPFGCMKGWSWPIWCLKD-NH2; linker 2-6-16 via TATA; N-terminus and C-terminus assumed) | – | 17.4 nM
CC[C@H](C)[C@@H]1NC(=O)[C@@H]2CCCN2C(=O)[C@H](Cc2c[nH]c3ccccc23)NC(=O)[C@H](CO)NC(=O)[C@H](Cc2c[nH]c3ccccc23)NC(=O)[C@H](Cc2c[nH]cn2)NC(=O)[C@H](CCC(=O)O)NC(=O)[C@H](CCC(N)=O)NC(=O)[C@@H]2CSCCC(=O)N3CN(CN(C3)C(=O)CCSC[C@H](NC(=O)[C@H](C)N)C(=O)N3CCC[C@H]3C(=O)N[C@@H](Cc3ccccc3)C(=O)NCC(=O)N2)C(=O)CCSC[C@@H](C(=O)N[C@H](C(=O)N[C@H](C(=O)N[C@@H](C)C(N)=O)[C@@H](C)O)[C@@H](C)O)NC(=O)[C@H](Cc2c[nH]c3ccccc23)NC1=O [BCY3396, A-(SEQ ID NO: 54)-TTA] (H-ACPFGCQEHWSWPIWCTTA-NH2; linker 2-6-16 via TATA; N-terminus and C-terminus assumed) | – | 102 nM
